Source: patent publication US11198673B2, “Therapeutic compounds and compositions” (eXIthera Pharmaceuticals, Inc., priority 2014, dated 2021)
pIC50: −log10 of the molar value.

Molecular target: T1, human Factor XIa (Homo sapiens, UniProt P03951)
T1 construct: Enzyme: Factor XIa; 0.25 μM in 50% glycerol (20 μg/mL)
Test: Factor XIa enzyme inhibition assay (IC50, purified enzyme)
Type: biochemical
Conditions: purified enzyme 0.25 nM, substrate 50 μM; read-out: Potency hFXIa IC50
Description: • Assay buffer: 20 mM Hepes, pH 7.4; 150 mM NaCl; 0.02% Tween 20 • Compounds: 10 mM stocks in DMSO • Substrate: 20 mM Glp-Pro-Arg-AMC, 25 mg/2.3 mL H2O (store at +4° C.) [Factor XIa, thrombin, and trypsin] • 20 mM Pro-Phe-Arg-AMC (Bachem I-1295), 25 mg/2.2 mL H2O (store at +4° C.) [Factor Xa] • Enzyme: Factor XIa; 0.25 μM in 50% glycerol (20 μg/mL) • Trypsin; 0.2 μM in 50% glycerol (4.8 μg/mL) • Thrombin; 0.2 μM in 50% glycerol (7.34 μg/mL) • Factor Xa; 0.2 μM in 50% glycerol (9.2 μg/mL) • These stocks are aliquoted ([…]) and stored at −20° C. Methods: • 1. Dilute the substrate to 100 μM in assay buffer (30 μL/6 mL). The enzyme is diluted to 0.5 nM just prior to use (12 μL/6 mL for Factor XIa; 15 μL/6 mL for all of the rest.) • 2. Pipette 50 μL of substrate into each well of the 96 well (12×8) microtiter plate. (Column 1 is used as the 100% activity control and receives no compound, and Column 12 is the blank and receives no enzyme.) Add an additional 46 μL to column 2. • 3. Pipette 4 μL of each compound into the appropriate well in column 2 of the plate (unknowns assayed in triplicate, standard assayed in duplicate). The final compound concentration will be 1/50th of the stock. • 4. Serially two-fold dilute the compound by mixing the sample in column 2, removing 50 μL to the next well (column 3), mix and remove to column 4, etc. until column 11. After mixing column 11, remove 50 μL and discard. • 5. Pipette 50 μL of buffer into column 12. Initiate the reaction by adding 50 μL of enzyme solution to each well of columns 1-11 as rapidly as possible. • 6. Read the plate in a spectrophotometer (SpectraMax) at 30° C., wherein each well is measured every 60 s for 30 min. For Factor Xa assays, each well is measured every 1 min for a total of 60 min. • 7. For Factor XIa assays, the compounds are assayed, in duplicate, at 3 different starting concentrations, 20, 2, and 0.2 μM; 1:10, 1:100, and 1:1000 dil'n of 10 mM stock. All data sets are combined for graphing and data fitting. • 8. Data can be used both for estimation of IC50 and for estimation of Kon.
Potential inhibitors of Factor XIa were evaluated using the following assay.
S-2366, pyroGlu-Pro-Arg-7-methylaminocourin (AMC), available from CPC Scientific, Inc., is based on the substrate pyro-Glu-Pro-Arg-pNA, available from Diapharma Group, Inc. (Columbus, Ohio), where the p-nitroanaline group is replaced with 7-methylaminocoumarin (AMC).
The final concentration of the substrate in the assay was 50 μM, and the final concentration of the enzyme was 0.25 nM. Inhibitors were tested by serial dilution over an appropriate range to yield a dose response curve for determination of the inhibitors' IC50 value. The assay mixture was read every minute for 30 minutes in order to generate progress curves. The plates were read in a Spectramax m5 Multimode Plate Reader (Molecular Devices LLC, Sunnyvale, Calif.). Dose response curves were fit to Equation 1 below in which A is the maximum inhibition, B is the minimum inhibition, C is the IC50, and D is the Hill coefficient. [(A−B)/(1+(X/C)^D)]+B (Equation 1)

T1 sequence (P03951 388-625 limits assumed): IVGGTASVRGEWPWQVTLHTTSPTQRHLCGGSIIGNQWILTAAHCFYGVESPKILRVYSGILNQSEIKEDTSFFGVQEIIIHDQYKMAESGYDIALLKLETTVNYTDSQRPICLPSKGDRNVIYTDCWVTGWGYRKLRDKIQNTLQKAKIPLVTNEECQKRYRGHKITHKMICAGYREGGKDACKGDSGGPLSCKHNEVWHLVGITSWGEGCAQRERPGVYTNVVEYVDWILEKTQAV
T1 sequence (P03951 19-387 partner limits assumed): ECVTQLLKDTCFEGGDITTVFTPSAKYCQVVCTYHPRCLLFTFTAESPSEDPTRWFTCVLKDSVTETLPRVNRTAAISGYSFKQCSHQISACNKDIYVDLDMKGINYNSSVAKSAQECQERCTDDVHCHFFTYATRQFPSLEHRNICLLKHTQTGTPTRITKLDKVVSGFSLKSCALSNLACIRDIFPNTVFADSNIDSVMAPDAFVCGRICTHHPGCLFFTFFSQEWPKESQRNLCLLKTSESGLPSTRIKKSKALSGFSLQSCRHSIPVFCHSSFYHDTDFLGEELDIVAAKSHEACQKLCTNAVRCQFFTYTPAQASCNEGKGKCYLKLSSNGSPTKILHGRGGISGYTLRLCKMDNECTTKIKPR

Structure (SMILES)	pIC50
O=C(O)[C@@H]1[C@@H](Cc2cccc3[nH]ncc23)C(=O)N1C(=O)N[C@@H](C1CCCCC1)C(F)(F)F [Example 138]	< 6.00
C[C@@H](NC(=O)N1C(=O)[C@H](Cc2cc(Cl)ccn2)[C@H]1C(=O)O)c1ccc2c(c1)OC(F)(F)O2 [Example 107]	< 6.00
O=C(O)[C@@H]1[C@@H](CCc2cc(Cl)ccc2Cl)C(=O)N1C(=O)N[C@@H](C1CCCCC1)C(F)(F)F [Example 198]	6.00 to 7.00
O=C(O)[C@@H]1[C@@H](CCc2cc(Cl)ccc2F)C(=O)N1C(=O)N[C@@H](C1CCCCC1)C(F)(F)F [Example 197]	6.00 to 7.00
O=C(O)[C@@H]1[C@@H](Cc2ccnc(Cl)c2)C(=O)N1C(=O)NC(c1ccccc1)c1ccccc1 [Example 51]	< 6.00
O=C(O)[C@@H]1[C@@H](Cc2ccnc(O)c2)C(=O)N1C(=O)N[C@@H](C1CCCCC1)C(F)(F)F [Example 147]	< 6.00
C[C@H](C1CCCCC1)N(C)C(=O)N1C(=O)[C@H](Cc2ccnc(N)c2)[C@H]1C(=O)O [Example 149]	7.00 to 8.00
C[C@@H](NC(=O)N1C(=O)[C@H](CCc2cccc(Cl)c2)[C@H]1C(=O)O)c1ccc2c(c1)OC(F)(F)O2 [Example 159]	6.00 to 7.00
C[C@@H](NC(=O)N1C(=O)[C@H](Cc2ccc(Cl)nc2)[C@H]1C(=O)O)c1ccc2c(c1)OC(F)(F)O2 [Example 96]	< 6.00
O=C(O)[C@@H]1[C@@H](CCc2cccc(Cl)c2)C(=O)N1C(=O)N[C@@H](C1CCCCCCC1)C(F)(F)F [Example 199]	6.00 to 7.00
C[C@@H](NC(=O)N1C(=O)[C@H](Cc2ccccn2)[C@H]1C(=O)O)c1ccc2c(c1)OC(F)(F)O2 [Example 114]	< 6.00
O=C(O)[C@@H]1[C@@H](CCc2ccccc2Cl)C(=O)N1C(=O)N[C@@H](C1CCCCC1)C(F)(F)F [Example 194]	< 6.00
C[C@@H](NC(=O)N1C(=O)[C@H](Cc2ccnc(Cl)c2)[C@H]1C(=O)O)c1ccccc1 [Example 190]	< 6.00
O=C(O)[C@@H]1[C@@H](Cc2cccc3c2OCO3)C(=O)N1C(=O)N[C@@H](C1CCCCC1)C(F)(F)F [Example 136]	6.00 to 7.00
O=C(O)[C@@H]1[C@@H](CCc2cccc(Cl)c2)C(=O)N1C(=O)NC(c1ccccc1)c1ccccc1 [Example 157]	< 6.00
C[C@@H](NC(=O)N1C(=O)[C@H](Cc2cccnc2)[C@H]1C(=O)O)c1ccc2c(c1)OC(F)(F)O2 [Example 191]	< 6.00
CCOC(=O)[C@@H]1[C@@H](Cc2cccnc2)C(=O)N1C(=O)N[C@H](C)c1ccc2c(c1)OC(F)(F)O2 [Example 95]	< 6.00
Cc1cccc(CC[C@H]2C(=O)N(C(=O)N[C@@H](C3CCCCC3)C(F)(F)F)[C@@H]2C(=O)O)c1 [Example 155]	6.00 to 7.00
CCCC(CCC)NC(=O)N1C(=O)[C@H](CCc2cccc(Cl)c2)[C@H]1C(=O)O [Example 192]	< 6.00
O=C(O)[C@@H]1[C@@H](CCc2ccc(Br)s2)C(=O)N1C(=O)N[C@@H](C1CCCCC1)C(F)(F)F [Example 200]	< 6.00
O=C(O)[C@@H]1[C@@H](CCc2ccccc2)C(=O)N1C(=O)N[C@@H](C1CCCCC1)C(F)(F)F [Example 145]	< 6.00
O=C(O)[C@@H]1[C@@H](Cc2cccc(Br)c2)C(=O)N1C(=O)N[C@@H](C1CCCCC1)C(F)(F)F [Example 131]	< 6.00
C[C@@H](NC(=O)N1C(=O)[C@H](Cc2cncc(Cl)c2)[C@H]1C(=O)O)c1ccc2c(c1)OC(F)(F)O2 [Example 108]	< 6.00
O=C(O)[C@@H]1[C@@H](Cc2ccc(Cl)cc2)C(=O)N1C(=O)N[C@@H](C1CCCCC1)C(F)(F)F [Example 195]	< 6.00
O=C(O)[C@@H]1[C@@H](Cc2cccc(Cl)c2)C(=O)N1C(=O)N[C@@H](C1CCCCC1)C(F)(F)F [Example 193]	< 6.00
O=C(O)[C@@H]1[C@@H](Cc2ccccc2)C(=O)N1C(=O)N[C@@H](C1CCCCC1)C(F)(F)F [Example 139]	< 6.00
C[C@H](c1ccccc1)N(C)C(=O)N1C(=O)[C@H](CCc2cccc(Cl)c2)[C@H]1C(=O)O [Example 144]	< 6.00
